Reference: patent US20240117302A1, “COMPOSITIONS AND METHODS FOR SMALL MOLECULE BASED EXPANSION OF PLURIPOTENT STEM CELLS” (Trailhead Biosystems Inc., priority 2022, published 2024)

What was measured:
Assay type in all cases: cell-based
pluripotent culture [1] = assay: HD-DoE experiment for E8 critical process parameter (CPP) media determination; settings: 1:1 F12/IMDM hybrid media, FIG. 3
Source text: To monitor the differentiation state of a pluripotent culture and track the primed state, naïve state and any early lineage commitment biases that may arise during the culture process, a network consisting of 54 genes was chosen (FIG. 1). Other genes monitored throughout this series of experiments include TERT and KI67. Maximal TERT expression is needed to sustain the pluripotent state in both naïve and primed cells while KI67, a proliferation marker, is expected to increase in the naïve state. Housekeeping genes measured within this QS chip design are used to normalize the individual experimental runs. This network of genes was then monitored using an HD-DoE methodology (Bukys et al. (2020) Iscience 23:101346) as further described in Example 2 to enable in silico modelling of the pluripotent state.
An initial HD-DoE modelling experiment was designed to determine if any of the components within the Essential 8 (E8) media were critical for pluripotent maintenance. The results of this experiment are depicted in FIG. 2. E8 media components include HEPES, bicarbonate, selenium, ascorbic acid, transferrin, insulin, FGF2 and TGF-β. HEPES, bicarbonate and selenium were not considered in this HD-DoE design, because they are additives that are not specific for the maintenance of the pluripotent state but are involved in enabling the overall growth of any cells in culture. In addition, these components are present in most generic media formulations, whereas the initial HD-DoE experiment herein utilized a 1:1 F12/IMDM hybrid media already containing HEPES, bicarbonate and selenium. In addition to the E8 components, human leukemia inhibitory factor (hLIF), AICAR (AMPK pathway agonist), CHIR 99021 (Wnt agonist/[…] antagonist), Go6983 (PKC pathway antagonist), PD0325901 (MEK pathway antagonist), and Y27632 (ROCK inhibitor) were evaluated within this design (FIG. 2). These components were selected based on previous experiments indicating the potential contribution of these components to maintenance of the pluripotent state.
Whereas the overall pluripotent state was driven by Go6983, the naïve state was favored by Y27632.

pluripotent colony = assay: Protein additives assayed in the TB5i formulation, with immuno-histochemical validation; settings: additive in the TB5i formulation, FIG. 8A
Source text: The protein additives FGF2, TGF-β1 and insulin were next assayed as additives in the TB5i formulation (FIG. 8A).

pluripotent culture [2] = assay: HD-DoE experiment for pluripotent maintenance (optimization of naïve, primed and pluripotent genes); settings: FIG. 6A
Source text: A data-driven, High-Dimensional Design of Experiments (HD-DoE)-based perturbation of a pluripotent culture was used to assay several cellular signaling pathways known to function within the pluripotent state. The HD-DOE method was applied with the intent to find conditions for directly inducing the naïve state from the pluripotent stem cell state. This example utilizes a method previously described by Bukys et al. (2020) Iscience 23:101346, which employs computerized design geometries to simultaneously test multiple process inputs and provide for mathematical modeling of a deep effector/response space. The method allows for finding combinatorial signaling inputs that control a complex differentiation process and allows testing of multiple plausible critical process parameters impacting output responses, such as gene expression. […]
To develop a cell culture recipe for growing and maintaining PSCs in cell culture and for differentiation of stem cells to naïve state progenitors, the impact of agonists and antagonists of multiple signaling pathways (herein called effectors) on the expression of pre-selected genes was tested and modeled. The impact of each effector on gene expression level is defined by a parameter called factor contribution that is calculated for each effector during the modeling. […]

pluripotent cells = assay: Adherent culture validation of TB5i media and comparison with TB7i; settings: direct comparison between TB5i and TB7i, FIG. 7A-7B
Method: In an exemplary embodiment, a PSC culture, such as the CR01 iPSC line, is grown and maintained on vitronectin coated 6-well TC plates using a culture media of the present application, such as TB5i media. PSC cultures are generally passaged every 3-4 days and treated with agents for disrupting cell-to-cell adhesion, such as EDTA, or digestion enzymes, such as collagenase, accutase, trypsin, or […]. This can be accomplished by removing the media and washing each well of the TC plate with 2 ml of PBS. A 3-minute incubation in the presence of 5 mM EDTA can then be performed at 37 degrees C. Wells are then aspirated, and the cells are washed off from the plates and seeded in fresh media. Each well passaged is generally seeded onto 6 wells of a newly vitronectin-coated TC plate resulting in a 1 to 6 expansion of the iPSC line.

Compound: O=C1O[C@H]([C@@H](O)CO)C(O)=C1O [ascorbic acid]
- contribution to maintaining the pluripotent state (pluripotent culture [1]): beneficial in maintaining the pluripotent state

Compound: COc1ccc2c(c1)c(C1=C(c3c[nH]c4ccccc34)C(=O)NC1=O)cn2CCCN(C)C [Go6983]
- contribution to maintaining the pluripotent state (pluripotent culture [1]): potentially aid in pluripotent maintenance

Compound: insulin
- effect on the culture (pluripotent colony): little, if any beneficial effect

Compound: transferrin
- contribution to maintaining the pluripotent state (pluripotent culture [1]): beneficial in maintaining the pluripotent state

Compound: TGF-β1
- morphology of the pluripotent colony edges (pluripotent colony): sustained normal morphology

Compound: FGF2
- growth rate of the culture (pluripotent colony): increased the growth rate

Compound: C[C@@H](N)[C@H]1CC[C@H](C(=O)Nc2ccncc2)CC1 [Y27632]
- contribution to maintaining the pluripotent state (pluripotent culture [1]): potentially aid in pluripotent maintenance
- criticality to the process (sequential optimization of all naïve, primed and pluripotent genes) (pluripotent culture [2]): neither the cAMP activator forskolin, nor the ROCK pathway inhibitor were critical
- benefit to the overall growth of pluripotent cells (pluripotent cells): neither forskolin, nor Y27632 were beneficial
